What was measured:
[1] = test system: reserpine-induced mice migraine; assay: Reserpine-induced mice migraine; format: in vivo, ICR mice; settings: for Blood coagulation time: reserpine 0.2 mg/kg sc mice, 1 h after final administration; for brain tissue 5-HT / Times of tail suspension (struggling times within 2 min): reserpine mice; for Times of tail suspension (struggling times within 2 min): 9th day
Method: The mice in the blank control group and model group were administered intragastrically via a solvent from the 5th day after modeling, and the rest groups of mice were respectively administered corresponding medicaments and doses for intragastric administration for 10 consecutive days; 1 h later after the final administration, the mice were weighed; blood was taken at inner canthus to detect blood coagulation time; whole blood was taken, and cerebrum was taken on an ice and preserved at -20° C. for the subsequent experiment.
Behavioral test: tail suspension activity was performed; the position 1 cm away from the tail of the mice was glued by an adhesive tape on the 9th day of the test, and the adhesive tape was penetrated by a steel needle, and hung in a dark box such that the mice were hung upside down; then the mice struggling times (total number of overturning from hanging) within 2 min were observed.
The mice were weighed 1 h later after the final administration; blood of inner canthus was taken via a capillary to detect the blood coagulation time.
Blood was taken to detect the content of 5-HT in serum via high-performance liquid chromatography. Cerebrum was taken on an ice and precooled and cleaned slightly with 0.5% sodium carboxymethylcellulose, and then sucked dry with a filter paper, and placed into a cryogenic tube, and preserved at -20° C. for further use, then the content of 5-HT in brain tissues was detected by high performance liquid chromatography.
5-HT test method: a sample was precipitated with 10% perchloric acid solution according to 1:1, and then centrifuged to take supernatant for test. Chromatographic conditions: the chromatographic column is a SHIMADZU VP-ODS C18 column (250*4.6 mm, 5 um), the mobile phase is a methanol-0.01 mol/L potassium acetate buffer solution (10:90, V/V, PH is adjusted to 4.00 with 0.2 mol/L citric acid) for gradient elution; the column temperature is 25° C., flow rate is 1.00 ml/min and test wavelength is 275 nm.

[2] = test system: mice with inflammatory pain; assay: Pain threshold of mice with inflammatory pain (complete Freund's adjuvant); format: in vivo, SD mice; settings: complete Freund's adjuvant paw model
Method: […] (180±20) g were injected with a complete Freund’s adjuvant (50 µL/piece) at the right rear plantar of mice, and mice in the control group were injected with the corresponding volume of 0.5% sodium carboxymethylcellulose to establish a paw edema inflammatory pain model. After modeling, the mice were administered for 7 d continuously, and administered intragastrically once per day. Pain thresholds (s) of the mice were respectively determined on the 1st, 3rd and 7th day before administration and after modeling at different periods of time.
Grouping and administration were the same as those of Example 40.

[3] = test system: mice writhing caused by acetic acid; assay: Mice writhing caused by acetic acid; settings: for Writhing times: 1 h before 0.7% acetic acid ip, within 20 min; for Latent time: time to first writhing
[4] = test system: mice pain response induced by hot plate; assay: Mice pain response induced by hot plate; format: in vivo, ICR mice; settings: hot plate 55°C
Method: Female ICR mice (20±2) g were placed on an intelligent hot plate at 55±0.5° C., and latency (s) that the plantar of mice touched the hot plate until the occurrence of a hind paws licking response served as a pain threshold indicator; the mice (response latency <5 s or >30 s) or jumping mice were eliminated.
Grouping and administration were the same as those in Example 40.
The mice were continuously administered intragastrically for 7 consecutive days; the pain threshold of each group of mice was respectively determined once at 30, 60, 90 and 120 min after the final administration; the pain threshold greater than 60 s was calculated by 60 s.

[5] = test system: ulcerative colitis mice; assay: Mice ulcerative colitis (DSS); format: in vivo, BALB/c mice; settings: DSS mice; for Colon length: four periods; for IL-1 content: serum, ELISA
Description: Healthy male SPF-level BALB/c mice (8-week old and body mass: (20±2) g).
Modeling: the mice were randomly divided into […] at the end of the quarantine, 10 pieces for each group. The mice in the normal group drank normal water freely, and the rest groups of mice drank 1.0%-1.5% DSS solution freely for modeling, 7 d later after modeling, the mice in the modeling group drank normal water freely for 7 d, and 14 d served as a modeling period for four continuous periods, and the mice in the modeling group were administered at the same time.
End point of the experiment: experimental administration was performed for four periods, and dissection was performed on the 3rd and 4th day of the recovery period of the 4th period.
Test indicators: the mice were weighed twice a week after the beginning of the administration; diarrhea and hematochezia of the mice were observed, and times of hematochezia were recorded.
At the end of the experiment, the mice were dissected and weighed, and narcotized to take blood, then serum was preserved at -80° C. Spleen was taken and weighed to calculate the spleen index. The content of IL-1β in serum was detected via ELISA. Colorectum was cut and taken to measure the length of colorectum, then immobilized by formaldehyde and dyed by HE to detect the pathological change.

SMILES: O=C(Nc1ccc(Cl)cc1)C1CCN(C(=O)c2ccc(O)cc2)CC1 [MAGLZ-II-10]
- Blood coagulation time ([1]; high dose 30 mg/kg ig 10 d): 148.00±30.23 S
- Blood coagulation time ([1]; low dose 7.5 mg/kg ig 10 d): 113.25±23.31 S
- Blood coagulation time ([1]; middle dose 15 mg/kg ig 10 d): 125.25±19.31 S
- brain tissue 5-HT ([1]; high dose 30 mg/kg ig 10 d): 0.90 ± 0.21 nmol/g
- Times of tail suspension (struggling times within 2 min) ([1]; high dose 30 mg/kg ig): 11.63±1.85
- brain tissue 5-HT ([1]; low dose 7.5 mg/kg ig 10 d): 0.85 ± 0.20 nmol/g
- Times of tail suspension (struggling times within 2 min) ([1]; low dose 7.5 mg/kg ig): 9.25±2.66
- brain tissue 5-HT ([1]; middle dose 15 mg/kg ig 10 d): 1.05 ± 0.14 nmol/g
- Times of tail suspension (struggling times within 2 min) ([1]; middle dose 15 mg/kg ig): 10.63±1.19
- Pain threshold ([2]; high dose 30 mg/kg ig once per day, 0 d): 12.93 ± 2.26 s
- Pain threshold ([2]; high dose 30 mg/kg ig once per day, 1 d): 5.67 ± 0.93 s
- Pain threshold ([2]; high dose 30 mg/kg ig once per day, 3 d): 7.95 ± 0.66 s
- Pain threshold ([2]; high dose 30 mg/kg ig once per day, 7 d): 8.93 ± 0.61 s
- Pain threshold ([2]; low dose 7.5 mg/kg ig once per day, 0 d): 12.71 ± 2.47 s
- Pain threshold ([2]; low dose 7.5 mg/kg ig once per day, 1 d): 5.59 ± 0.89 s
- Pain threshold ([2]; low dose 7.5 mg/kg ig once per day, 3 d): 7.15 ± 0.59 s
- Pain threshold ([2]; low dose 7.5 mg/kg ig once per day, 7 d): 8.33 ± 0.57 s
- Pain threshold ([2]; middle dose 15 mg/kg ig once per day, 0 d): 12.77 ± 2.48 s
- Pain threshold ([2]; middle dose 15 mg/kg ig once per day, 1 d): 5.62 ± 0.84 s
- Pain threshold ([2]; middle dose 15 mg/kg ig once per day, 3 d): 7.18 ± 0.55 s
- Pain threshold ([2]; middle dose 15 mg/kg ig once per day, 7 d): 8.36 ± 0.59 s
- Writhing times ([3]; high dose 30 mg/kg ig): 24.8±11.1^∗
- Latent time ([3]; high dose 30 mg/kg ig): 306.4±90.2^∗ s
- Writhing times ([3]; low dose 7.5 mg/kg ig): 34.0±9.1
- Latent time ([3]; low dose 7.5 mg/kg ig): 235.4 ± 59.6 s
- Writhing times ([3]; middle dose 15 mg/kg ig): 32.8±11.6
- Latent time ([3]; middle dose 15 mg/kg ig): 246.2 ± 69.5 s
- Pain threshold ([4]; high dose 30 mg/kg ig 7 d, 30 min after final administration): 17.73 ± 6.20 s
- Pain threshold ([4]; high dose 30 mg/kg ig 7 d, 60 min): 19.77 ± 6.73 s
- Pain threshold ([4]; high dose 30 mg/kg ig 7 d, 90 min): 25.25 ± 7.01 s
- Pain threshold ([4]; high dose 30 mg/kg ig 7 d, 120 min): 24.90 ± 5.73 s
- Pain threshold ([4]; low dose 7.5 mg/kg ig 7 d, 30 min after final administration): 16.37 ± 6.00 s
- Pain threshold ([4]; low dose 7.5 mg/kg ig 7 d, 60 min): 17.93 ± 5.75 s
- Pain threshold ([4]; low dose 7.5 mg/kg ig 7 d, 90 min): 19.24 ± 4.72 s
- Pain threshold ([4]; low dose 7.5 mg/kg ig 7 d, 120 min): 19.14 ± 4.63 s
- Pain threshold ([4]; middle dose 15 mg/kg ig 7 d, 30 min after final administration): 16.67 ± 5.97 s
- Pain threshold ([4]; middle dose 15 mg/kg ig 7 d, 60 min): 18.79 ± 5.95 s
- Pain threshold ([4]; middle dose 15 mg/kg ig 7 d, 90 min): 22.43 ± 5.31 s
- Pain threshold ([4]; middle dose 15 mg/kg ig 7 d, 120 min): 20.60 ± 4.64 s
- Total times of hematochezia within the four periods ([5]; high dose 30 mg/kg ig): 35.15±4.52
- Colon length ([5]; high dose 30 mg/kg ig): 6.35±0.61 cm
- IL-1 content ([5]; high dose 30 mg/kg ig): 47.25 ± 6.37 pg/mL
- Total times of hematochezia within the four periods ([5]; low dose 7.5 mg/kg ig): 38.40±5.02
- Colon length ([5]; low dose 7.5 mg/kg ig): 5.92±0.66 cm
- IL-1 content ([5]; low dose 7.5 mg/kg ig): 51.81 ± 7.86 pg/mL
- Total times of hematochezia within the four periods ([5]; middle dose 15 mg/kg ig): 38.20±7.83
- Colon length ([5]; middle dose 15 mg/kg ig): 5.72±0.60 cm
- IL-1 content ([5]; middle dose 15 mg/kg ig): 50.83 ± 7.79 pg/mL
